In assay [1] the target is T1, His-TEV-DYRK1A Kinase domain (aa127-485) (Homo sapiens, UniProt Q13627).
T1 construct: His-TEV-DYRK1A Kinase domain (aa127-485); His tag (N); TEV protease cleavage site (N)
Put plainly: Kinase ADP assay (ADP Hunter), DYRK1A kinase domain. Particulars: 20 μM ATP. The class given is biochemical. The procedure: The enzyme reaction was conducted in assay buffer (pH 7.4), containing 15 mM Hepes; 20 mM NaCl; 1 mM EGTA; 10 mM MgCl2; 0.02% Tween20 and 0.1 mg/ml Bovine-y-globulin. Test compounds of the invention were added in reaction buffer in a range of concentrations for 10 minutes at 30° C. in the presence of 20 nM DYRK1A enzyme, 40 μM peptide substrate and 20 μM ATP. Detection reagents (DiscoveRx 90-0083), ADP Hunter Plus Reagent A and then ADP Hunter Plus Reagent B were added. After a following 20 minutes incubation at 30° C., ADP Hunter Plus Stop Solution was added. The fluorescence intensity was measured at 590 nm.

For the next assay, the target named is DYRK1A (Homo sapiens, UniProt Q13627). Briefly: Cellular DYRK1 autophosphorylation assay in U2-OS cells. It is filed as cell-based. Also on record: full-length, wild-type human DYRK1A (NM_001396) with an HA tag; expressed in transfected cells; host or cells: human U2-OS osteosarcoma cells, transient transfection of a pcDNA3.1 plasmid. Conditions: U2-OS cells transfected with HA-tagged human DYRK1A, 5 hours exposure; read-out: IC50 (μM) P-Ser520-Dyrk1A -Cell assay. Here is the method: On day 2, cells were exposed to a range of concentrations of the test compounds of the invention for 5 hours. […] The relative levels of phospho-Ser520-DYRK1A were assayed using either western blotting or the Mesoscale ELISA platform. For analysis by western blot, lysates were diluted into Laemmli sample buffer (Bio-Rad) containing 5% v/v β-mercaptoethanol, heated for 5 min at 95° C., and resolved on Tris-glycine gels or NuPage Bis-Tris gels (Novex; Invitrogen). Biotinylated molecular weight standards (Cell Signaling Technology) were included in all gels. Proteins were transferred to nitrocellulose membranes (Hybond, ECL; Amersham), which were blocked in Tris-buffered saline/0.1% tween 20 (TBST) containing 5% milk, and probed at 4° C. overnight with anti-phospho-Ser520-DYRK1A antibody (Eurogentec SE6974-75; 0.23 μg/ml in 5% BSA) or anti DYRK1A antibody (Abnova H00001859; 0.5 μg/ml in 5% milk). Peroxidase-conjugated secondary antibodies were diluted into 5% milk and applied to membranes for 1 h at 20° C. Chemiluminescence detection was performed using the ECL plus western blotting detection kit (Amersham) and was recorded on ECL plus hyperfilm (Amersham). Blots were scanned using the Bio-Rad GS-800 calibrated densitometer and quantitative analysis of western blots was performed using TotalLab software (Amersham). IC50 values for inhibition of phospho-Ser520-DYRK1A were calculated from dose-response curves plotting the ratio between phospho-Ser520-DYRK1A and total DYRK1A signals at each concentration. […] Anti-phospho-Ser520-DYRK1A antibody (Eurogentec SE6974-75; […]) and anti DYRK1A antibody (Abnova H00001859; 3 μg/ml) was then added for 1 hour at RT, followed by addition of Sulfa-TAG anti-rabbit detection antibody (ref MSD R32AB; 1 μg/ml) and Sulfa-TAG anti-mouse detection antibody (ref MSD R32-AC-1; 1 μg/ml). After a further 1 hour, Read Buffer was added and plates were read on the Sector Imager 2400 (Mesoscale). IC50 values for inhibition of phospho-Ser520-DYRK1A were calculated from dose-response curves.

`Cc1nc2ccc(-c3cc(N)nc(N)c3)nc2n1CC1Cc2ccccc21` (single isomer, unassigned) [Example 113, 4-[3-(bicyclo[4.2.0]octa-1,3,5-trien-7-ylmethyl)-2-methyl-3H-imidazo[4,5-b]pyridin-5-yl]pyridine-2,6-diamine]: the IC50 in assay [1] came to 0.01 µM; at DYRK1A it was 0.243 µM.

As to `Cc1nc2ccc(-c3cc(N)nc(N)c3)nc2n1C[C@H](C)Oc1ccccc1Cl` (single isomer, unassigned) [Example 117], the IC50 in assay [1] was 0.006 µM; on DYRK1A, 0.075 µM.

As for `CC[C@@H](Cn1c(C)nc2ccc(-c3cc(N)nc(N)c3)nc21)Oc1ccccc1` (single isomer, unassigned) [Example 119], the results for the IC50 (in assay [1]; on DYRK1A) were 0.004 µM and 0.105 µM, respectively.

As to `CC[C@H](Cn1c(C)nc2ccc(-c3cc(N)nc(N)c3)nc21)Oc1ccccc1` (single isomer, unassigned) [Example 120], the results for the IC50 (in assay [1]; on DYRK1A) were 0.003 µM and 0.161 µM, respectively.

As for `Cc1nc2ccc(-c3cc(N)nc(N)c3)nc2n1C[C@@H](C)N(C)c1ccccc1` (single isomer, unassigned) [Example 121], the IC50 in assay [1] was 0.008 µM; at DYRK1A, 0.041 µM.

Turning to `Cc1nc2ccc(-c3cc(N)nc(N)c3)nc2n1C[C@H](C)N(C)c1ccccc1` (single isomer, unassigned) [Example 122], the IC50 came to 0.02 µM in assay [1] and 0.122 µM at DYRK1A.

In the case of `Cc1nc2ccc(-c3cc(N)nc(N)c3)nc2n1C[C@H](C)Oc1cccc(F)c1` (single isomer, unassigned) [Example 123], the values for the IC50 (in assay [1]; on DYRK1A) were 0.01 µM and 0.082 µM, respectively.

`Cc1nc2ccc(-c3cc(N)nc(N)c3)nc2n1C[C@@H](C)Oc1cccc(F)c1` (single isomer, unassigned) [Example 124]: the figures for the IC50 (in assay [1]; at DYRK1A) were 0.006 µM and 0.061 µM, respectively.

Take `COc1cccc(O[C@@H](C)Cn2c(C)nc3ccc(-c4cc(N)nc(N)c4)nc32)c1` (single isomer, unassigned) [Example 125]: the IC50 in assay [1] stood at 0.022 µM; at DYRK1A it was 0.151 µM.

On to `COc1cccc(O[C@H](C)Cn2c(C)nc3ccc(-c4cc(N)nc(N)c4)nc32)c1` (single isomer, unassigned) [Example 126], for which the values for the IC50 (in assay [1]; at DYRK1A) were 0.055 µM and 0.271 µM, respectively.

Take `Cc1cccc(O[C@H](C)Cn2c(C)nc3ccc(-c4cc(N)nc(N)c4)nc32)c1` (single isomer, unassigned) [Example 128]: the results for the IC50 (in assay [1]; on DYRK1A) were 0.037 µM and 0.163 µM, respectively.

As to `Cc1nc2ccc(-c3cc(N)nc(N)c3)nc2n1C[C@H](C)Oc1ccc(F)cc1` (single isomer, unassigned) [Example 129], the figures for the IC50 (in assay [1]; on DYRK1A) were 0.037 µM and 0.13 µM, respectively.

Consider `Cc1ccccc1O[C@@H](C)Cn1c(C)nc2ccc(-c3cc(N)nc(N)c3)nc21` (single isomer, unassigned) [Example 131], for which the concentration for half-maximal inhibition (IC50) in assay [1] was determined as 0.016 µM; at DYRK1A it was 0.045 µM.

Take `Cc1ccccc1O[C@H](C)Cn1c(C)nc2ccc(-c3cc(N)nc(N)c3)nc21` (single isomer, unassigned) [Example 132]: the figures for the IC50 (in assay [1]; on DYRK1A) were 0.038 µM and 0.207 µM, respectively.

Regarding `Cc1nc2ccc(-c3cc(N)nc(N)c3)nc2n1C[C@H](C)Oc1ccccc1F` (single isomer, unassigned) [Example 133], the concentration for half-maximal inhibition (IC50) in assay [1] was 0.015 µM; on DYRK1A it was 0.074 µM.

`Cc1nc2ccc(-c3cc(N)nc(N)c3)nc2n1C[C@@H](C)Oc1ccccc1F` (single isomer, unassigned) [Example 134]: the IC50 in assay [1] came out at 0.038 µM; on DYRK1A, 0.205 µM.

Take `Cc1nc2ccc(-c3cc(N)nc(N)c3)nc2n1C[C@H](C)Sc1ccccc1` (single isomer, unassigned) [Example 135]: the IC50 in assay [1] is 0.016 µM; at DYRK1A it was 0.098 µM.

Take `Cc1nc2ccc(-c3cc(N)nc(N)c3)nc2n1C[C@@H](C)Sc1ccccc1` (single isomer, unassigned) [Example 136]: the IC50 came out at 0.028 µM in assay [1] and 0.247 µM at DYRK1A.

Broadly, the IC50 is the concentration needed to halve the response being measured.

Values taken from patent US20180273528A1 (LES LABORATOIRES SERVIER, priority 2015, published 2018).
